Reference: ChEMBL document CHEMBL3885861, “Open TG-GATES”

Species: Rattus norvegicus
Experiment: Open TG-GATES - Regimen: Daily Repeat
Assay type: toxicity, organism-based, Sprague-Dawley
Set-up: regimen Daily Repeat, gender Male, age 6 weeks
Conditions: in vivo, po, 150 mg/kg, route gavage, dose level High; for APTT / Bas / Eos / Fbg / Hb / Ht / Lym / MCH / MCHC / MCV / Mono / Neu / PT / Plat / RBC / Ret / WBC: tissue Blood; for KIDNEY_L / KIDNEY_R / KIDNEY_TOTAL: tissue Kidney; for LIVER: tissue Liver; for A/G / ALP / ALT / AST / BUN / CRE / Ca / Cl / DBIL / GLC / IP / K / LDH / Na / PL / RALB / TBIL / TC / TG / TP / gamma-GTP: tissue Plasma

O=c1ccc2ccccc2o1 [COUMARIN]
TERMINAL_BW (72 h, time 3 day): 168.7 g
APTT (72 h, time 3 day): 14.2 s
Bas (72 h, time 3 day): 0%
Eos (72 h, time 3 day): 1%
Fbg (72 h, time 3 day): 193.7 mg/dL
Hb (72 h, time 3 day): 14.6 g/dL
Ht (72 h, time 3 day): 43.8%
Lym (72 h, time 3 day): 80.8%
MCH (72 h, time 3 day): 21 pg
MCHC (72 h, time 3 day): 33.2%
MCV (72 h, time 3 day): 63.2 fL
Mono (72 h, time 3 day): 4.8%
Neu (72 h, time 3 day): 13.6%
PT (72 h, time 3 day): 11.5 s
Plat (72 h, time 3 day): 117.7 x10_4/uL
RBC (72 h, time 3 day): 693.6 x10_4/ul
Ret (72 h, time 3 day): 3.5%
WBC (72 h, time 3 day): 97.2 x10_2/uL
KIDNEY_L (72 h, time 3 day): 0.8 g
KIDNEY_R (72 h, time 3 day): 0.8 g
KIDNEY_TOTAL (72 h, time 3 day): 1.6 g
LIVER (72 h, time 3 day): 9.5 g
A/G (72 h, time 3 day): 2.2
ALP (72 h, time 3 day): 1111.8 IU/L
ALT (72 h, time 3 day): 54.6 IU/L
AST (72 h, time 3 day): 72 IU/L
BUN (72 h, time 3 day): 16 mg/dL
CRE (72 h, time 3 day): 0.5 mg/dL
Ca (72 h, time 3 day): 10.9 mg/dL
Cl (72 h, time 3 day): 106 meq/L
DBIL (72 h, time 3 day): 0.072 mg/dL
GLC (72 h, time 3 day): 178.2 mg/dL
IP (72 h, time 3 day): 8 mg/dL
K (72 h, time 3 day): 4.8 meq/L
LDH (72 h, time 3 day): 162 IU/L
Na (72 h, time 3 day): 139.6 meq/L
PL (72 h, time 3 day): 168 mg/dL
RALB (72 h, time 3 day): 3.8 g/dL
TBIL (72 h, time 3 day): 0.3 mg/dL
TC (72 h, time 3 day): 95.2 mg/dL
TG (72 h, time 3 day): 30.2 mg/dL
TP (72 h, time 3 day): 5.6 g/dL
gamma-GTP (72 h, time 3 day): 1.8 IU/L
TERMINAL_BW ([…], time 7 day): 202.2 g
TERMINAL_BW ([…], time 14 day): 250.7 g
TERMINAL_BW ([…], time 28 day): 305.5 g
APTT ([…], time 7 day): 16.5 s
Bas ([…], time 7 day): 0%
Eos ([…], time 7 day): 1%
Fbg ([…], time 7 day): 236 mg/dL
Hb ([…], time 7 day): 13.3 g/dL
Ht ([…], time 7 day): 40.2%
Lym ([…], time 7 day): 81.2%
MCH ([…], time 7 day): 20.5 pg
MCHC ([…], time 7 day): 33%
MCV ([…], time 7 day): 62.2 fL
Mono ([…], time 7 day): 3.6%
Neu ([…], time 7 day): 14.2%
PT ([…], time 7 day): 11.5 s
Plat ([…], time 7 day): 121.9 x10_4/uL
RBC ([…], time 7 day): 646.6 x10_4/ul
Ret ([…], time 7 day): 5.4%
WBC ([…], time 7 day): 152.2 x10_2/uL
APTT ([…], time 14 day): 17.3 s
Bas ([…], time 14 day): 0%
Eos ([…], time 14 day): 1%
Fbg ([…], time 14 day): 238 mg/dL
Hb ([…], time 14 day): 13.5 g/dL
Ht ([…], time 14 day): 40.8%
Lym ([…], time 14 day): 77.6%
MCH ([…], time 14 day): 20 pg
MCHC ([…], time 14 day): 33.1%
MCV ([…], time 14 day): 60.5 fL
Mono ([…], time 14 day): 7.8%
Neu ([…], time 14 day): 13.8%
PT ([…], time 14 day): 11.4 s
Plat ([…], time 14 day): 129.9 x10_4/uL
RBC ([…], time 14 day): 674.8 x10_4/ul
Ret ([…], time 14 day): 5.1%
WBC ([…], time 14 day): 131.3 x10_2/uL
APTT ([…], time 28 day): 16.9 s
Bas ([…], time 28 day): 0%
Eos ([…], time 28 day): 1.2%
Fbg ([…], time 28 day): 229.8 mg/dL
Hb ([…], time 28 day): 14.7 g/dL
Ht ([…], time 28 day): 44.2%
Lym ([…], time 28 day): 79.4%
MCH ([…], time 28 day): 18.4 pg
MCHC ([…], time 28 day): 33.2%
MCV ([…], time 28 day): 55.3 fL
Mono ([…], time 28 day): 5.4%
Neu ([…], time 28 day): 14.2%
PT ([…], time 28 day): 11.4 s
Plat ([…], time 28 day): 120.2 x10_4/uL
RBC ([…], time 28 day): 800.8 x10_4/ul
Ret ([…], time 28 day): 2.9%
WBC ([…], time 28 day): 123.8 x10_2/uL
KIDNEY_L ([…], time 7 day): 0.9 g
KIDNEY_R ([…], time 7 day): 0.9 g
KIDNEY_TOTAL ([…], time 7 day): 1.8 g
KIDNEY_L ([…], time 14 day): 1.1 g
KIDNEY_R ([…], time 14 day): 1.1 g
KIDNEY_TOTAL ([…], time 14 day): 2.2 g
KIDNEY_L ([…], time 28 day): 1.2 g
KIDNEY_R ([…], time 28 day): 1.2 g
KIDNEY_TOTAL ([…], time 28 day): 2.4 g
LIVER ([…], time 7 day): 11.5 g
LIVER ([…], time 14 day): 14.4 g
LIVER ([…], time 28 day): 16.2 g
A/G ([…], time 7 day): 2
ALP ([…], time 7 day): 807 IU/L
ALT ([…], time 7 day): 43.8 IU/L
AST ([…], time 7 day): 54.4 IU/L
BUN ([…], time 7 day): 13 mg/dL
CRE ([…], time 7 day): 0.6 mg/dL
Ca ([…], time 7 day): 10.9 mg/dL
Cl ([…], time 7 day): 104.2 meq/L
DBIL ([…], time 7 day): 0.058 mg/dL
GLC ([…], time 7 day): 180.2 mg/dL
IP ([…], time 7 day): 7.2 mg/dL
K ([…], time 7 day): 4.9 meq/L
LDH ([…], time 7 day): 181 IU/L
Na ([…], time 7 day): 139.2 meq/L
PL ([…], time 7 day): 182.2 mg/dL
RALB ([…], time 7 day): 4.1 g/dL
TBIL ([…], time 7 day): 0.2 mg/dL
TC ([…], time 7 day): 101.4 mg/dL
TG ([…], time 7 day): 33.4 mg/dL
TP ([…], time 7 day): 6.2 g/dL
gamma-GTP ([…], time 7 day): 1.4 IU/L
A/G ([…], time 14 day): 1.9
ALP ([…], time 14 day): 789 IU/L
ALT ([…], time 14 day): 52.8 IU/L
AST ([…], time 14 day): 62.8 IU/L
BUN ([…], time 14 day): 16.8 mg/dL
CRE ([…], time 14 day): 0.6 mg/dL
Ca ([…], time 14 day): 11 mg/dL
Cl ([…], time 14 day): 106.4 meq/L
DBIL ([…], time 14 day): 0.072 mg/dL
GLC ([…], time 14 day): 181 mg/dL
IP ([…], time 14 day): 6.8 mg/dL
K ([…], time 14 day): 4.9 meq/L
LDH ([…], time 14 day): 188 IU/L
Na ([…], time 14 day): 139.8 meq/L
PL ([…], time 14 day): 198.6 mg/dL
RALB ([…], time 14 day): 4 g/dL
TBIL ([…], time 14 day): 0.2 mg/dL
TC ([…], time 14 day): 106.4 mg/dL
TG ([…], time 14 day): 49.4 mg/dL
TP ([…], time 14 day): 6.2 g/dL
gamma-GTP ([…], time 14 day): 1.2 IU/L
A/G ([…], time 28 day): 1.7
ALP ([…], time 28 day): 689.6 IU/L
ALT ([…], time 28 day): 67.2 IU/L
AST ([…], time 28 day): 63 IU/L
BUN ([…], time 28 day): 19.6 mg/dL
CRE ([…], time 28 day): 0.6 mg/dL
Ca ([…], time 28 day): 11.2 mg/dL
Cl ([…], time 28 day): 106.6 meq/L
DBIL ([…], time 28 day): 0.046 mg/dL
GLC ([…], time 28 day): 177.6 mg/dL
IP ([…], time 28 day): 6.8 mg/dL
K ([…], time 28 day): 4.6 meq/L
LDH ([…], time 28 day): 147.2 IU/L
Na ([…], time 28 day): 139.2 meq/L
PL ([…], time 28 day): 222.8 mg/dL
RALB ([…], time 28 day): 4.4 g/dL
TBIL ([…], time 28 day): 0.2 mg/dL
TC ([…], time 28 day): 121.8 mg/dL
TG ([…], time 28 day): 70.8 mg/dL
TP ([…], time 28 day): 6.9 g/dL
gamma-GTP ([…], time 28 day): 0.6 IU/L
